Assay results from PMC6337391 (Molecules, 2019).

Experiments:
[1] = molecular target: T1, Aβ40 (Homo sapiens, UniProt P05067); experiment: Circular dichroism study of Aβ40 aggregation; conditions: 50 µM compound, 50 µM Aβ40 (1:1), PB pH 7.33, 33 °C, 40 days
T1 construct: Amyloid peptide Aβ40 was purchased from AnaSpec Co; purchased AnaSpec Co. (Fremont, CA, USA)
Source text: The pathogenesis of Alzheimer’s disease (AD) is widely associated with the aggregation of β-amyloid peptide (Aβ) either to soluble oligomers or to higher-order polymeric insoluble fibrils. As a result, one of the main therapeutic strategies against AD targets the aggregation process of Aβ, and a great number of small molecules are being investigated for their potential to intervene in the assembly of Aβ and inhibit its neurotoxicity in vitro and in vivo [64]. Circular dichroism (CD) spectroscopy is commonly used to probe the secondary structure of polypeptides and to monitor conformational changes and interactions of polypeptides with small molecules. The typical aggregation process of Aβ produces characteristic CD spectra over time that reflect the conformational changes that occur as the random coil monomers are converted into β-sheet oligomers, and then gradually to larger β-sheet formations that finally produce amyloid fibrils. CD is, therefore, a valuable tool to monitor the aggregation process of Aβ and to study the effect of potential aggregation inhibitors. To further investigate the pleiotropic effects of chalcones against AD, selected compounds from our library, were subjected to CD studies in order to evaluate their potential to interfere with the aggregation process of Aβ40. […] The aggregation spectra of plain Aβ40 show at day 0 the typical random coil peak (negative maximum at 198 nm) the intensity of which gradually decreases as the peptide forms β–sheet structures (negative maximum at 222 nm, day 15) that further aggregate to higher order polymeric fibrils. The precipitation of the insoluble fibrils from solution eventually results in the loss of CD signal (days 30 and 40). […] In view of the above results, chalcone derivatives bearing a three-carbon chain linker, specifically c2, c3, and c4, were subsequently studied in order to assess the effect of further derivatization and the presence of the chalcone moiety in the structure. […] Overall, our CD study identified three new structures capable of interfering with the aggregation process of Aβ, out of which compounds c2 and c4 display additional protective actions against AD and add to the pleiotropic profile of the chalcone derivatives.
Preparation of Aβ stocks and solutions. Amyloid peptide Aβ40 was purchased from AnaSpec Co. (Fremont, CA, USA) (>95% pure). Aβ40 was gently dissolved without vortexing in Type 1 (Milli-Q) water to a final concentration of 100 μM. Solutions of Aβ in phosphate buffer (PB, 10 mM, pH 7.33) were prepared by adding equal volumes of PB to aliquots of the aqueous solution stock to achieve final concentration of 50 µM. The proper amount of the compounds c2, c3, c4, di, dii, and dvi were added to the Aβ solutions to achieve concentration of 50 μM. The secondary structural changes of Aβ were monitored for 40 days by CD. During this period, the amyloid peptide solutions were kept at an incubator at 33 °C under quiescent conditions.
Circular dichroism measurements. CD spectra were recorded on a JASCO J-715 spectropolarimeter (Jasco Co., Tokyo, Japan), at 33 °C in the range of 190–260 nm with a 1 mm path length quartz cuvette. Each spectrum was the average of three scans at a speed of 100 nm·min^−1 and a resolution of 0.5 nm. Three independent experiments were run for each condition and in each case solutions of plain Aβ were run as control (Figure 8). The analysis of the CD data was performed using the OriginPro 9 program.

[2] = set-up: method as in PMID 25798685; conditions: DPPH, cited from earlier work
[3] = set-up: method as in PMID 25798685; conditions: cited from earlier work
[4] = set-up: method as in PMID 25798685; conditions: cited from earlier work; remark: listed apart in the source
[5] = molecular target: T2, soybean lipoxygenase (Glycine max, UniProt P08170); set-up: method as in PMID 25798685; conditions: cited from earlier work
T2 sequence (P08170 1-839): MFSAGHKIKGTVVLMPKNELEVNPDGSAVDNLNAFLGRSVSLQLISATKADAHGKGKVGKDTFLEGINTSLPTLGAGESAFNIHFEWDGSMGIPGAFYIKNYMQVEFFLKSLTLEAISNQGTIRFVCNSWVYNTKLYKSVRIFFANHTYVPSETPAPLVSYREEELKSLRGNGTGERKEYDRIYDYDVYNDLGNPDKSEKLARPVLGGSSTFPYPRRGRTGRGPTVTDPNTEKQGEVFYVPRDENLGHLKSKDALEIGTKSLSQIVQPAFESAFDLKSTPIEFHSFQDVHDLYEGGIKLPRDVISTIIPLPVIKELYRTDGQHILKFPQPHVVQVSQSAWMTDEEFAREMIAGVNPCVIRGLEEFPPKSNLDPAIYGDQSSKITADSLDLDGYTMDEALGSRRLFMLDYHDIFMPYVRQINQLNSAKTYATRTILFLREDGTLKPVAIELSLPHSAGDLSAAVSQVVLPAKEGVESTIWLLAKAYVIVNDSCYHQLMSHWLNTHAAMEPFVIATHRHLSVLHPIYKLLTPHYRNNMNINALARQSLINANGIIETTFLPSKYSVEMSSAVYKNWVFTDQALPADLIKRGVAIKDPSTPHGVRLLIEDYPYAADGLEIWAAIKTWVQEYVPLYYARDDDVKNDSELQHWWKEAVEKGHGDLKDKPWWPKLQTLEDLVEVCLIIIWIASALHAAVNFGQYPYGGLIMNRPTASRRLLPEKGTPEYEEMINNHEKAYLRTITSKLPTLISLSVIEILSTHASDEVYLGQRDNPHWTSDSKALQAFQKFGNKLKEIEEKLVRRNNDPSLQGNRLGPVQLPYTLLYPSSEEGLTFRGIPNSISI

[6] = molecular target: acetyl-cholinesterase (AChE) (Electrophorus electricus, UniProt O42275); conditions: cited from earlier work
[7] = set-up: method as in PMID 25798685; conditions: RP-TLC, methanol/water 70/30, SD < 10%; cited from earlier work
[8] = system: L929 mouse fibroblasts cells; set-up: method as in PMID 25798685; conditions: 24-h incubation, cited from earlier work
[9] = In vitro lipid peroxidation of liposomes
[10] = molecular target: T3, human h-15-LOX-1 (Homo sapiens, UniProt P16050); experiment: Human h-15-LOX-1 screening UV assay; format: biochemical; conditions: read-out: h-15-LOX-1 Inhb. IC50
T3 sequence (P16050 1-662): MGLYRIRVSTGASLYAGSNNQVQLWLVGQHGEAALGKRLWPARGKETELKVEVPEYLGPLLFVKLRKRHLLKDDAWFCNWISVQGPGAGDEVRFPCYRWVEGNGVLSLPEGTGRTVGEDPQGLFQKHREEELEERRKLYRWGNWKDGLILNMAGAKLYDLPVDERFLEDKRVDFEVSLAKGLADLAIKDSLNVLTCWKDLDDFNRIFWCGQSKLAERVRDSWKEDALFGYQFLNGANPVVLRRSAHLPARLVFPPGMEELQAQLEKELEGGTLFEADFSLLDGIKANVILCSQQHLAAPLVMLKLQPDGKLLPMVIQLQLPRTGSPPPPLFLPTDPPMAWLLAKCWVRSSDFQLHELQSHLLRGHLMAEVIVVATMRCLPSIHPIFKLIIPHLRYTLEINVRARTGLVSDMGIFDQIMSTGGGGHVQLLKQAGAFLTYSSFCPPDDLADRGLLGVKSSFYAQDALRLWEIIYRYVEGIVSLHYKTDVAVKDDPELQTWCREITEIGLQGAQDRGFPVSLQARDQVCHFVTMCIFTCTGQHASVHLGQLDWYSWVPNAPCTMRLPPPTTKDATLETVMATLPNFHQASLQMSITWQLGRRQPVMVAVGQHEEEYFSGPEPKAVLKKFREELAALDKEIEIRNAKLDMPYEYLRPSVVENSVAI
Method: The residual enzyme activity was measured after 10 min pre-incubation with the tested compounds at room temperature. […] Compound c11 follows.
The assay buffer consists of HEPES titrated to pH 7.5 using a concentrated aqueous solution of NaOH. Linoleic acid (LA) was used as a substrate. The linear absorbance increase in absence of the inhibitor was set as 100%, whereas the absorbance increase in absence of the enzyme was set to 0%. All experiments were performed in triplicate and the average triplicate values and their standard deviations are plotted. The vertical axis describes the residual enzyme activity percent % of the human h-15-LOX-1, whereas the horizontal axis describes the concentration of 50 µM of the compounds. The half maximal inhibitor concentration (IC50) of the inhibitors for h-15-LOX-1 was determined using the same assay (Figure 6 and Figure 7).

Sequence of acetyl-cholinesterase (AChE) (O42275 24-633): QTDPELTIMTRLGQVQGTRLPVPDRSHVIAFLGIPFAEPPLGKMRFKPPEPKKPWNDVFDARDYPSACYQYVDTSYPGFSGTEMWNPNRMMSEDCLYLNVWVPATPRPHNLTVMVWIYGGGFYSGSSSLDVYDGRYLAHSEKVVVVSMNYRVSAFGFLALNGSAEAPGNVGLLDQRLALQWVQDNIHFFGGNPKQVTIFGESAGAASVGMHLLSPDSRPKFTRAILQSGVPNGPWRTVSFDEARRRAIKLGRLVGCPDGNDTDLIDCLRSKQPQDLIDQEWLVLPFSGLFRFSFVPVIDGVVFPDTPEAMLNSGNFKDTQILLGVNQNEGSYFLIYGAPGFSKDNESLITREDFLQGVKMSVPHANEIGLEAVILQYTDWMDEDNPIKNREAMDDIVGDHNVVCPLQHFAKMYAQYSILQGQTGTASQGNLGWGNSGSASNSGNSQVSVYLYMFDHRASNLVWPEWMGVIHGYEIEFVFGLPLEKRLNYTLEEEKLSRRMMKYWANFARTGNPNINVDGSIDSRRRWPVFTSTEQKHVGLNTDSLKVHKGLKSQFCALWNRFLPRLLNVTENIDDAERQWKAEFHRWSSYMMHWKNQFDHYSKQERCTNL
T1 sequence (P05067 672-711 limits assumed): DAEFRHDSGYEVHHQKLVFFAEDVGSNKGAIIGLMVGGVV

SMILES: CN(C)c1ccc(/C=C/C=C/C(=O)c2ccc(OCCCOc3ccc(C(=O)/C=C/C=C/c4ccc(N(C)C)cc4)cc3)cc2)cc1 [c3, (2E,2′E, 4E, 4′E)-1,1′-((propane-1,3-diylbis-(oxy))bis(4,1-phenylene)) bis-(5-(4-(dimethylamino)phenyl)penta-2,4-dien-1-one)]
- effect on the aggregation process of Aβ40 (CD spectra) [1]: no significant effect on the aggregation process of Aβ40 was observed
- RA% 100 μM 20 min [2]: 17%
- RA% 100 μM 60 min [2]: 14%
- ABTS•+ Inhb. % @ 100 μM [3]: 99%
- AAPH% @ 100 μM (anti-lipid peroxidation) [4]: 70%
- % LOX Inhb. @ 100 μM [5]: 93%
- % AChE Inhb. @ 100 μM [6]: 95%
- RM [7]: 0.77
- 1 μM Average (% pi) ± σ [8]: 81 ± 0.8%
- 10 μM Average (% pi) ± σ [8]: 90 ± 1%
- 20 μM Average (% pi) ± σ [8]: 100 ± 0%
- 50 μM Average (% pi) ± σ [8]: 100 ± 0%
- 100 μM Average (% pi) ± σ [8]: 100 ± 0%
- % Inhb. of Liposomes LP @ 100 μM [9]: 81%

SMILES: O=C(/C=C/c1cccc2ccccc12)c1ccc(OCCCOc2ccc(C(=O)/C=C/c3cccc4ccccc34)cc2)cc1 [c4, (2E,2′E)-1, 1′-((propane-1,3-diylbis-(oxy))bis-(4,1-phenylene)) bis-(3-(naphthalen-1-yl)prop-2-en-1-one)]
- effect on the aggregation process of Aβ40 (CD spectra) [1]: stabilized β-sheet assemblies that did not evolve further into insoluble fibrillar aggregates
- RA% 100 μM 20 min [2]: 19%
- RA% 100 μM 60 min [2]: 50%
- ABTS•+ Inhb. % @ 100 μM [3]: no
- AAPH% @ 100 μM (anti-lipid peroxidation) [4]: 95%
- % LOX Inhb. @ 100 μM [5]: 100%
- % AChE Inhb. @ 100 μM [6]: 58%
- RM [7]: 0.43
- 1 μM Average (% pi) ± σ [8]: 29.5 ± 3.5%
- 10 μM Average (% pi) ± σ [8]: 42 ± 4.6%
- 20 μM Average (% pi) ± σ [8]: 46 ± 5.6%
- 50 μM Average (% pi) ± σ [8]: 67 ± 9.2%
- 100 μM Average (% pi) ± σ [8]: 67 ± 9.2%
- % Inhb. of Liposomes LP @ 100 μM [9]: 3%

SMILES: O=C(/C=C/c1cccc(Oc2ccccc2)c1)c1ccc(OCCCOc2ccc(C(=O)/C=C/c3cccc(Oc4ccccc4)c3)cc2)cc1 [c2, (2E,2′E)-1,1′-((propane-1,3-diylbis(oxy))bis(4,1-phenylene))bis(3-(3-phenoxyphenyl)prop-2-en-1-one)]
- effect on the aggregation process of Aβ40 (CD spectra) [1]: stabilized β-sheet assemblies that did not evolve further into insoluble fibrillar aggregates
- RA% 100 μM 20 min [2]: No
- RA% 100 μM 60 min [2]: 8%
- ABTS•+ Inhb. % @ 100 μM [3]: no
- AAPH% @ 100 μM (anti-lipid peroxidation) [4]: 22%
- % LOX Inhb. @ 100 μM [5]: 100%
- IC50 ([5]; soybean LOX): 55 µM
- % AChE Inhb. @ 100 μM [6]: 71%
- RM [7]: −0.89
- 1 μM Average (% pi) ± σ [8]: 17 ± 1.4%
- 10 μM Average (% pi) ± σ [8]: 29 ± 4.2%
- 20 μM Average (% pi) ± σ [8]: 43 ± 2.8%
- 50 μM Average (% pi) ± σ [8]: 55 ± 4.2%
- 100 μM Average (% pi) ± σ [8]: 55 ± 4.2%
- % Inhb. of Liposomes LP @ 100 μM [9]: 2%

SMILES: c1ccc2c(c1)SCc1c-2[nH]c2ccccc12 [PD-146176, reference compound]
- IC50 [10]: 16 µM
